Strand notation (5' to 3'): a small letter for the sugar, then the base; units joined by * are phosphorothioate-linked, units joined directly phosphodiester-linked; [ ] holds rarer units or linkages, { } end groups; capitals alone tell only the bases. e = 2'-O-(2-methoxyethyl) (MOE); [5mC] = 5-methylcytosine; d = 2'-deoxy (DNA)
Tests used:
Type in all cases: in vivo, mouse
thrombus formation [1] = test: Stenosis-induced inferior vena cava thrombosis model, thrombi weights (Example 22); conditions: BALB/c mice; for Thrombi weight: 24 hrs after stenosis
Experimental: Reduced blood flow and endothelial damage are hallmarks of this model, also known as the St. Tomas model.
Four groups of 6-8 BALB/c mice were treated with 5 mg/kg, 10 mg/kg, 20 mg/kg, or 40 mg/kg of ISIS 482584, administered subcutaneously twice a week for 3 weeks (weekly doses of 10 mg/kg, 20 mg/kg, 40 mg/kg, or 80 mg/kg). A control group of 8 BALB/c mice was treated with PBS, administered subcutaneously twice a week for 3 weeks. Two days after the last dose of antisense oligonucleotide or PBS was administered, mice from all groups were anesthetized with 2.5% inhalant isoflurane. The IVC of the mice was exposed via a midline abdominal incision below the left renal vein, and was separated from the abdominal aorta by blunt dissection. A 6-0 silk tie (Ethicon, UK) was placed behind the blood vessel just below the left renal vein and a metal 4-0 suture (Ethicon, UK) was placed longitudinally over the IVC to tie the silk tie on top. The metal suture was then removed. Two neurovascular surgical clips (Braun Medical Inc, PA) were placed at two separate positions below the ligation for 20 seconds each, after which they were removed. The abdominal cavity contents were then replaced and the abdomen was closed. After 24 hrs, the IVC was exposed and checked for thrombi formation. All thrombi formed were collected and fixed in 10% formalin for 24 hrs.
The thrombi were weighed and the results are presented in Table 85, expressed in milligrams.

C1-INH mRNA = C1-INH mRNA in liver of mice treated with ISIS 461756 (Example 18); conditions: liver; all groups ISIS 461756 25 mg/kg/wk; pretreatment PBS or oligonucleotide 80 mg/kg/wk sc 3 weeks
Experimental: Vascular permeability induced by ISIS 461756, an antisense oligonucleotide which targets murine C1 inhibitor mRNA, increases vascular permeability in mice and replicates the pathology of hereditary angioedema. The effect of ISIS 482584 on this model was evaluated.
One group of 8 mice was treated with 40 mg/kg ISIS 482584 administered subcutaneously twice a week for 3 weeks (weekly dose of 80 mg/kg). A second group of 8 mice was treated with 40 mg/kg of the control oligonucleotide, ISIS 141923, administered subcutaneously twice a week for 3 weeks (weekly dose of 80 mg/kg). A third group of 8 mice was treated with PBS administered subcutaneously twice a week for 3 weeks. On day 14, all the groups were treated with 12.5 mg/kg ISIS 461756 administered subcutaneously twice a week for 3 weeks (weekly dose of 25 mg/kg). A control group of mice was treated with PBS administered subcutaneously twice a week for 3 weeks but was not administered ISIS 461756.
At the end of the treatment period, all the groups were injected with 30 mg/kg of Evans Blue solution into the tail vein. The mice were sacrificed 30 min after the Evans Blue solution administration and colons, feet, ears, and intestines were harvested. The liver was also harvested for RNA analysis.
RNA was isolated from the liver for RT-PCR analysis of C1-INH and PKK mRNAs. The primer probe set for C1-INH is RTS3218 (forward sequence […], designated herein as SEQ ID NO: 2234; reverse sequence […], designated herein as SEQ ID NO: 2235; probe sequence […], designated herein as SEQ ID NO: 2236). The primer probe set for PKK is RTS3287 (forward sequence […], designated herein as SEQ ID NO: 2237; reverse sequence […], designated herein as SEQ ID NO: 2238; probe sequence […], designated herein as SEQ ID NO: 2239). The results are presented in Table 79 as percent inhibition compared to the PBS control not treated with ISIS 461756.

thrombus formation [2] = test: FeCl3 induced mesenteric thrombosis model, platelet aggregation and fibrin formation (Example 21); conditions: Swiss-Webster mice; for Fibrin formation, fluorescent intensity / Platelet aggregation, fluorescent intensity: 80 mg/kg/wk
Experimental: ISIS 482584 was evaluated in the FeCl3 induced mesenteric thrombosis mouse model.
A group of 6-8 Swiss-Webster mice was treated with 40 mg/kg of ISIS 482584, administered subcutaneously twice a week for 3 weeks (weekly dose of 80 mg/kg). A control group of 6 Swiss-Webster mice was treated with PBS, administered subcutaneously twice a week for 3 weeks. Two days after the last dose of antisense oligonucleotide or PBS, mice from all groups were anesthetized with 75 mg/kg ketamine mixed with 25 mg/kg xylazine, administered by subcutaneous injection.
Rhodamine 6G dye at a dosage of 5 mg/kg was injected subcutaneously to stain platelets. Alexa-647-labeled anti-fibrinogen antibody at a dosage of 1 mg/kg was injected via tail vein injection to stain fibrin. The abdomen was opened by a middle incision. The visceral mesentery was spread on a glass coverslip and the mesenteric arterioles (70-120 μm) were located by observation under a microscope. Thrombus formation was induced by applying of cotton threads (2×0.3 mm) pre-saturated with 6% FeCl3 solution directly on the target vessel. After three minutes of exposure, the thread was removed and the color intensities of both the dyes were recorded by fluorescent microscopy (Olympus FluoView 1000 confocal laser scanning microscope) with appropriate filters for 70 min.
The results for platelet aggregation in the control and treatment groups are presented in Table 83, expressed in arbitrary units (a.u.). […] The results for fibrin formation in the control and treatment groups are presented in Table 84, also expressed in arbitrary units (a.u.).

ISIS 482584: 5-10-5 MOE gapmer targeting murine PKK, GGCATATTGGTTTTTGGAAT; SEQ ID NO: 2244 (antisense eG*eG*e[5mC]*eA*eT*dA*dT*dT*dG*dG*dT*dT*dT*dT*dT*eG*eG*eA*eA*eT)
Thrombi weight (thrombus formation [1]; 10 mg/kg/wk sc 3 weeks): 8 mg
Thrombi weight (thrombus formation [1]; 20 mg/kg/wk sc 3 weeks): 6 mg
Thrombi weight (thrombus formation [1]; 40 mg/kg/wk sc 3 weeks): 5 mg
Thrombi weight (thrombus formation [1]; 80 mg/kg/wk sc 3 weeks): 3 mg
thrombus weight (thrombus formation [1]; increasing doses 5-40 mg/kg s.c. twice a week for 3 weeks): corresponding decrease in thrombus weight
Percent inhibition of C1-INH mRNA expression compared to the untreated PBS control (C1-INH mRNA): 77%
Fibrin formation, fluorescent intensity (thrombus formation [2]; time 752 sec): 54 a.u.
Platelet aggregation, fluorescent intensity (thrombus formation [2]; time 752 sec): 74 a.u.
Fibrin formation, fluorescent intensity (thrombus formation [2]; time 1018 sec): 7 a.u.
Platelet aggregation, fluorescent intensity (thrombus formation [2]; time 1018 sec): 11 a.u.
Fibrin formation, fluorescent intensity (thrombus formation [2]; time 1284 sec): 1 a.u.
Platelet aggregation, fluorescent intensity (thrombus formation [2]; time 1284 sec): 7 a.u.
Fibrin formation, fluorescent intensity (thrombus formation [2]; time 1550 sec): 10 a.u.
Platelet aggregation, fluorescent intensity (thrombus formation [2]; time 1550 sec): 0 a.u.
Fibrin formation, fluorescent intensity (thrombus formation [2]; time 1815 sec): 16 a.u.
Platelet aggregation, fluorescent intensity (thrombus formation [2]; time 1815 sec): 0 a.u.
Fibrin formation, fluorescent intensity (thrombus formation [2]; time 2081 sec): 15 a.u.
Platelet aggregation, fluorescent intensity (thrombus formation [2]; time 2081 sec): 0 a.u.
Fibrin formation, fluorescent intensity (thrombus formation [2]; time 2347 sec): 61 a.u.
Platelet aggregation, fluorescent intensity (thrombus formation [2]; time 2347 sec): 0 a.u.
Fibrin formation, fluorescent intensity (thrombus formation [2]; time 2613 sec): 88 a.u.
Platelet aggregation, fluorescent intensity (thrombus formation [2]; time 2613 sec): 38 a.u.
Fibrin formation, fluorescent intensity (thrombus formation [2]; time 2879 sec): 141 a.u.
Platelet aggregation, fluorescent intensity (thrombus formation [2]; time 2879 sec): 148 a.u.
Fibrin formation, fluorescent intensity (thrombus formation [2]; time 3144 sec): 150 a.u.
Platelet aggregation, fluorescent intensity (thrombus formation [2]; time 3144 sec): 129 a.u.
Fibrin formation, fluorescent intensity (thrombus formation [2]; time 3410 sec): 173 a.u.
Platelet aggregation, fluorescent intensity (thrombus formation [2]; time 3410 sec): 169 a.u.
Fibrin formation, fluorescent intensity (thrombus formation [2]; time 3676 sec): 160 a.u.
Platelet aggregation, fluorescent intensity (thrombus formation [2]; time 3676 sec): 131 a.u.
Fibrin formation, fluorescent intensity (thrombus formation [2]; time 3944 sec): 128 a.u.
Platelet aggregation, fluorescent intensity (thrombus formation [2]; time 3944 sec): 87 a.u.
fibrin formation (thrombus formation [2]; 80 mg/kg/week, vs PBS): Fibrin formation was reduced
platelet aggregation (thrombus formation [2]; 80 mg/kg/week, vs PBS): Platelet aggregation was reduced
